PMC7862169, “Restoration of renal TIMP3 levels via genetics and pharmacological approach prevents experimental diabetic nephropathy” (Clinical and Translational Medicine, 2021)

Tests used:
[1] = biological target: T1, human recombinant ADAM17 (Homo sapiens, UniProt P78536); assay: ADAM17 activity, SensoLyte 520 TACE Activity Assay Kit; type: biochemical; conditions: 1 μM peptide, 1 μM enzyme, QXL520/5-FAM FRET substrate, 60 minutes, n = 3; Figures 5A, S4E
T1 construct: purchased R&D Systems
Protocol: ADAM17 activity was determined using the SensoLyte 520 TACE Activity Assay Kit (AnaSpec). 1 μM human recombinant ADAM17 (R&D Systems) was incubated with the QXL520/ 5‐FAM FRET substrate, derived from a sequence surrounding the cleavage site of ADAM17. For inhibitor studies, 1μM TAPI‐0 or 1 μM G3C12, G3C12‐NTIMP3 and G3C12‐T2GNTIMP3 peptides were used. Active ADAM17 cleaves FRET substrate into two separate fragments resulting in an increase of 5‐FAM fluorescence which can be monitored at excitation/emission = 490 nm/520 nm measured in a fluorescence microplate reader (Beckman Coulter DTX 800) continuously every 5 minutes for 60 minutes (10).

[2] = biological target: T2, human recombinant MMP9 (Homo sapiens, UniProt P14780); assay: MMP9 colorimetric Inhibitor Screening Assay kit; type: biochemical; conditions: 1 μM peptide, 0.9 U enzyme, 37°C 60 minutes before substrate, read at 412 nm, n = 3; Figures 5A, S4E
T2 construct: purchased Abcam
Protocol: (§1) The MMP2/9 activities were evaluated using MMP2/MMP9 colorimetric Inhibitor Screening Assay kits (Abcam) under the manufacturer's instruction. In brief, 0.9 U of human recombinant MMP2 or MMP9 was mixed with 1 μM G3C12, G3C12‐NTIMP3, G3C12‐T2GNTIMP3 peptides, or 1.3 μM NNGH inhibitor as […]. The mixture was incubated at 37°C for 60 minutes then substrate was added. The plate was read at 412 nm by infinite F50 microplate reader (TECAN). Continuous recording was made at 1 minute interval for 20 minutes. The experiment was performed in triplicate.

[3] = test system: diabetic DBA/2J mice; assay: Peptide treatment of STZ diabetic mice: toxicity, behaviour, blood glucose; type: in vivo; conditions: STZ diabetic DBA/2J mice, 2 mg/kg iv, two injections per week for 8 weeks
Protocol: Diabetes was induced in 8‐week‐old mice by a multiple low‐dose streptozotocin (STZ) (Sigma) injection. STZ was given intraperitoneally (ip) at 50 mg/kg per day (freshly made in Na‐Citrate buffer, pH 4.5) for 5 consecutive days after a 4 hours fast. Control animals were treated with Na‐citrate buffer alone. Diabetes was defined as fed blood glucose level ≥250 mg/dL using a glucometer (OneTouch Ultra, LifeScan).
At 5 weeks after STZ or Na‐Citrate buffer administration, DBA/2J mice were randomly divided into the following four treatment groups: (1) vehicle buffer (PBS), (2) G3C12 free peptide, (3) G3C12‐NTIMP3 peptide, and (4) G3C12‐T2GNTIMP3 peptide. Peptides were dissolved in sterile PBS and administered intravenously (iv) by retro‐orbital injection (2 mg/kg body weight) in mice two times per week for 8 weeks.

[4] = cited from earlier work; for Kidney selectivity of carrier peptide: even with conjugated drugs
From the text: Many proteins and peptides take on an increasingly important role as therapeutics in areas including diabetes diseases mainly due to their potential to bind to targets in a selective manner, thus reducing undesired off‐target effects. ^17 Drug‐targeting delivery to the kidney is an attractive method to increase the pharmaceutical compounds efficacy, ^18 however it represents a promising but underdeveloped area. Recently, galectin‐3 targeted G3C12 peptide and ε‐polylysine derived, synthetic (KKEEE)3K peptide have been identified as novel highly kidney‐specific carriers with exceptional kidney s ...

[5] = biological target: T3, human recombinant MMP2 (Homo sapiens, UniProt P08253); assay: MMP2 colorimetric Inhibitor Screening Assay kit; type: biochemical; conditions: 1 μM peptide, 0.9 U enzyme, 37°C 60 minutes before substrate, read at 412 nm, n = 3; Figures 5A, S4E
T3 construct: purchased Abcam
T3 sequence (P08253 110-660): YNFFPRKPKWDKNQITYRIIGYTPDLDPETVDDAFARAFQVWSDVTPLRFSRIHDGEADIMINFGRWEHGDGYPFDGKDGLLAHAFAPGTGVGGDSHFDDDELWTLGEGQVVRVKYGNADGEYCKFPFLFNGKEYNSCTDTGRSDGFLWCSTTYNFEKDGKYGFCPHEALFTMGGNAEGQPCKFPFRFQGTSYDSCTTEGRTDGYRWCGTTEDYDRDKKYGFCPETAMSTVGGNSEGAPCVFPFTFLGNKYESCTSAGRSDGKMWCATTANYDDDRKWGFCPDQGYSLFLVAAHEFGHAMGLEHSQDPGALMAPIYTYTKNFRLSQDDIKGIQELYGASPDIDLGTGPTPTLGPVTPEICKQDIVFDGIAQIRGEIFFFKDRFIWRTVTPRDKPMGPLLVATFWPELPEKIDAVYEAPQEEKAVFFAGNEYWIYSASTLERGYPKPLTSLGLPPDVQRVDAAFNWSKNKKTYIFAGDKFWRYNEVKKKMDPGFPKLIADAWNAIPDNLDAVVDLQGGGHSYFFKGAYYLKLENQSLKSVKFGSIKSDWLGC
Protocol: as §1

T2 sequence (P14780 94-707): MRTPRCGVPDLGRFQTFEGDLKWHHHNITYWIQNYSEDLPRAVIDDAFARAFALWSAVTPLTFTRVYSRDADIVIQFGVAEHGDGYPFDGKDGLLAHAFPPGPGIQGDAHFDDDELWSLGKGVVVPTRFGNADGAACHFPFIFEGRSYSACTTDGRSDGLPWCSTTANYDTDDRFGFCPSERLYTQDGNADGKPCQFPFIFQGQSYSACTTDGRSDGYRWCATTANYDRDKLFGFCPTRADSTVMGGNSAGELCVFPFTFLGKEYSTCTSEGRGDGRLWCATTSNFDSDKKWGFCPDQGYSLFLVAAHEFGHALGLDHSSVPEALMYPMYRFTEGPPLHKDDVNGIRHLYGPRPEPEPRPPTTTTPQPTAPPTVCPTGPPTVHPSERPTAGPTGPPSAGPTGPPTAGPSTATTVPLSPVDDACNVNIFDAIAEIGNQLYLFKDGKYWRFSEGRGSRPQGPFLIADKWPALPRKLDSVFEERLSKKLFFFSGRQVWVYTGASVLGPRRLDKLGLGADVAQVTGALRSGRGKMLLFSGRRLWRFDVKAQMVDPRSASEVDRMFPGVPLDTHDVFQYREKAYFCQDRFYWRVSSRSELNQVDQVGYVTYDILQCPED
T1 sequence (P78536 215-824): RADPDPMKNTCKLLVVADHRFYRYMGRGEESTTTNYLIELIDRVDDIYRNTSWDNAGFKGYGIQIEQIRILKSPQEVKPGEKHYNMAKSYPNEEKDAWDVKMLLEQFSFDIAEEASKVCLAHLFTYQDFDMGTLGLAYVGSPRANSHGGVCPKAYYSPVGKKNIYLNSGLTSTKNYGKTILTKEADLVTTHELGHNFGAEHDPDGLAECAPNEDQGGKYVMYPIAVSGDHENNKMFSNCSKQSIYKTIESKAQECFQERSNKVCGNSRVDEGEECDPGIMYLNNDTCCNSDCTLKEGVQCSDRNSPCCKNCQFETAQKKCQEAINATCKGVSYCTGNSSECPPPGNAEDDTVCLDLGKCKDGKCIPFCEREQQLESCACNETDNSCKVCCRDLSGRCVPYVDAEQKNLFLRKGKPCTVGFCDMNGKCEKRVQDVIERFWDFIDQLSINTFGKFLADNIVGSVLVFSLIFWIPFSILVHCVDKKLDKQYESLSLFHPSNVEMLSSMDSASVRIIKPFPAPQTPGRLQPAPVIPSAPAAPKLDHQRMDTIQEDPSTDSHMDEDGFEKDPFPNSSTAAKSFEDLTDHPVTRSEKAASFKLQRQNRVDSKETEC

Substance | Inhibition of human ADAM17 enzyme activity (percentage of residual activity) [1] | Inhibition of human MMP9 enzyme activity (percentage of residual activity) [2] | Changes in behavioral or nutritional status [3] | Toxic effects [3] | Kidney accumulation of carrier peptide [4] | Toxic profile of carrier peptide [4] | Kidney selectivity of carrier peptide [4] | Inhibition of human MMP2 enzyme activity (percentage of residual activity) [5]
ANTPCGPYTHDCPVKR [G3C12] | did not show any inhibitory activity | did not show any inhibitory activity | Neither have any changes been observed | No toxic effects were observed | rapid kidney accumulation | no toxic profile | exceptional kidney selectivity | did not show any inhibitory activity
(KKEEE)3K [ε‐polylysine derived, synthetic kidney‐specific carrier peptide] | – | – | – | – | rapid kidney accumulation | no toxic profile | exceptional kidney selectivity | –
